Marks after values point to notes of the source that are not given here.
Assays:
Assay type in all cases: cell-based, Wistar male rats
[1] = system: diaphysis tissue of the femur (cortical bone); assay: Bone calcium level in cultured femoral diaphysis tissue pieces; conditions: for Bone calcium level: diaphysis tissue, mean ± SE
Experimental: (§1) The femurs were extracted from rats (Wistar male rats; 4 to 5 weeks old) (purchased from Japan SLC Co., Ltd. and fed with solid Oriental yeast (MF)) under anesthesia with ether under a germfree condition. The femurs were each washed with 0.25 M sucrose solution, and then divided into the diaphysis (cortical bone) and metaphysis (cancellous bone). The bone tissue pieces were cultured in a culture medium (Dulbecco's modified culture medium containing 5% of glucose; serum-free medium) containing. β-cryptoxanthin, etc. at […] in an incubator filled with 5% CO2-95% air for 48 hours. β-cryptoxanthin used was “β-cryptoxanthin” of Extrasynthase Co., cycloheximide used was “Cycloheximide” of Sigma Co. Ltd., β-carotene was “β-carotene” of Sigma ? , xanthine was “Xanthine” of Sigma Co, Ltd., parathormone was “Parathormone” of Sigma Co. Ltd. and prostaglandin E2 was “Prostaglandin E2” of Sigma Co. Ltd. In the control, only the culture medium was used without β-cryptoxanthin or the like.
(§2) Bone calcium level in the bone tissue was determined. After the culture in the incubator, the tissue pieces were washed with 0.25 M sucrose solution and dried and then the bone was weighed. Then concentrated nitric acid was added to the tissue pieces. After the incineration at 120° C. for 12 hours, the bone calcium level was determined with an atomic absorption photometer (“Perkin-Elmer 303” of Perkin-Elmer Co.).
(§3) The bone component-increasing effect of β-cryptoxanthin was examined. The diaphysis and metaphysis tissue of the femur was cultured in the above-described culture medium containing β-cryptoxanthin ([…]) for 48 hours. Calcium level in the bone tissue, alkaline phosphatase activity (enzyme for accelerating the bone calcification) and the amount of deoxyribonucleic acid (DNA; index of number of cells in the bone tissue) were determined by the same methods as in Example 1. In each test group, the determination vas conducted 6 to 8 times and the results were represented by the average value and the standard error. The significant difference was determined by Student's t-test. The result was compared with that of the control. When P value was not higher than 0.01 (**) or not higher than 0.05 (*), the results were statistically significant.

[2] = system: diaphysis tissue of the femur (cortical bone); assay: Bone alkaline phosphatase activity in cultured femoral diaphysis tissue pieces; conditions: for Bone alkaline phosphatase activity: diaphysis tissue, mean ± SE
Experimental: as §1
(§4) The expression level of alkaline phosphatase, which is the most important enzyme for the acceleration of the calcification of bones, was examined. The tissue pieces cultured in the incubator were washed in 0.25 M sucrose solution, then pulverized in 3 ml of 65 mM barbital buffer (pH 7-4) and treated with ultrasonic waves. The resultant liquid was centrifuged. The supernatant, as the enzyme solution, was determined by a method of Walter ad Schutt in Method of Enzymatic Analysis, Vol. 1-2, p. 856, Academic Press, New York, 1965). Namely, this method was carried out as follows: p-nitrophenylphosphoric acid was used as the substrate. 0.05 ml of the enzyme solution was added to 2 ml of diethanolamine buffer (pH 9.8). After the incubation at 37° C. for 30 minutes, 10 ml of 0.05 N NaOH was added to the mixture. The absorbance (405 nm) was determined with a spectrophotometer to determine bone alkaline phosphatase activity of a bone remedy or a compound known to be effective for the bones.
as §3

[3] = system: metaphysis tissue of the femur (cancellous bone); assay: Bone alkaline phosphatase activity in cultured femoral metaphysis tissue pieces; conditions: for Bone alkaline phosphatase activity: metaphysis tissue, mean ± SE
Experimental: as §1, §4, §3

[4] = system: diaphysis tissue of the femur (cortical bone); assay: Bone DNA level in cultured femoral diaphysis tissue pieces; conditions: for Bone DNA level: diaphysis tissue, mean ± SE
Experimental: as §1
DNA level was determined as an index of the number of cells in the bone tissue. After the culture in an incubator, the tissue pieces were washed with 0.25 M sucrose solution and then the wet weight of them was determined. They were pulverized in 4 ml of 0.1 N NaOH. After the osmosis at 4° C. for 24 hours, the liquid mixture was centrifuged. The supernatant was taken as the sample and determined by a method of Ceriotti et al. (J. Biol. Chem., 241; 34-77, 1951). Namely, 1 ml of concentrated hydrochloric acid and 1 ml of 0.04% indole solution were added to 2 ml of the sample and then the resultant mixture was heated to 100° C. in boiling water. After quenching followed by the extraction with 4 ml of chloroform, the chloroform layer was taken to determine bone DNA level with a spectrophotometer (490 nm).
as §3

[5] = system: diaphysis tissue of the femur; assay: Bone resorption (PTH or prostaglandin E2): bone calcium level in cultured diaphysis tissue
Experimental: as §1, §2
The bone mineral dissolution-inhibiting effect of β-cryptoxanthin was examined. […] PTH also has a pathophysiologic role on the expression of osteoporosis caused by the aging. It is known that prostaglandin E2 also causes physiologic bone mineral dissolution. The diaphysis or metaphysis tissue of the femur was cultured in the presence of 10^−7 M PTH or 10^−5 M prostaglandin E2 for 48 hours and then calcium level in the bone tissue was determined. In another experiment, the culture was conducted in the same manner as that described above in the coexistence of them and β-cryptoxanthin (10^−8 M to 10^−6 M) and then calcium level in the bone tissue was determined. In each test group, the determination was conducted 6 to 8 times and the results were represented by the average value and the standard error. The significant difference was determined by Student's t-test. The result was compared with that of the control. When P value was not higher than 0.01 (*) as compared with the control or it is not higher than 0.1 (#) as compared with that of prostaglandin E2, the results were statistically significant.

[6] = Table 2 (protein synthesis inhibitor experiment), 10^−6 M (each agent), n=6
[7] = β-cryptoxanthin 10^−6 M with cycloheximide
[8] = 10^−7 to 10^−5 M, 48 h culture, vs control

Structure (SMILES): CC1=C(/C=C/C(C)=C/C=C/C(C)=C/C=C/C=C(C)/C=C/C=C(C)/C=C/C2=C(C)C[C@@H](O)CC2(C)C)C(C)(C)CCC1 [β-cryptoxanthin]
- Effect on calcium level in the diaphysis tissue (in words) ([1]; 10^−8 to 10^−5 M, 48 h culture, vs control): significant increase
- Bone calcium level [1, 6]: 275.1 ± 4.50* mg/g dry weight
- Bone calcium level ([1]; 10^−5 M, 48 h culture): 291.7 ± 2.29** mg/g dry weight
- Bone calcium level ([1]; 10^−6 M, 48 h culture): 272.2 ± 3.15** mg/g dry weight
- Bone calcium level ([1]; 10^−7 M, 48 h culture): 269.9 ± 6.26** mg/g dry weight
- Bone calcium level ([1]; 10^−8 M, 48 h culture): 249.6 ± 3.33** mg/g dry weight
- Calcium level in diaphysis tissue increased by β-cryptoxanthin: change in the presence of cycloheximide (in words) [1, 7]: significantly lowered
- Effect on alkaline phosphatase activity in the diaphysis (in words) [2, 8]: significantly increased
- Bone alkaline phosphatase activity [2, 6]: 691.5 ± 11.2* nmol/min/mg protein
- Bone alkaline phosphatase activity ([2]; 10^−5 M, 48 h culture): 644.6 ± 15.2** nmol/min/mg protein
- Bone alkaline phosphatase activity ([2]; 10^−6 M, 48 h culture): 684.0 ± 17.7** nmol/min/mg protein
- Bone alkaline phosphatase activity ([2]; 10^−7 M, 48 h culture): 604.2 ± 9.6* nmol/min/mg protein
- Bone alkaline phosphatase activity ([2]; 10^−8 M, 48 h culture): 568.5 ± 9.5 nmol/min/mg protein
- Bone alkaline phosphatase activity in diaphysis tissue increased by β-cryptoxanthin: change in the presence of cycloheximide (in words) [2, 7]: significantly lowered
- Effect on the enzymatic (alkaline phosphatase) activity in the metaphysis (in words) ([3]; 10^−7 to 10^−4 M (so in the source), 48 h culture, vs control): increase
- Bone alkaline phosphatase activity [3, 6]: 1168.2 ± 30.1* nmol/min/mg protein
- Bone alkaline phosphatase activity ([3]; 10^−5 M, 48 h culture): 1229.5 ± 40.9** nmol/min/mg protein
- Bone alkaline phosphatase activity ([3]; 10^−6 M, 48 h culture): 1150.9 ± 26.8** nmol/min/mg protein
- Bone alkaline phosphatase activity ([3]; 10^−7 M, 48 h culture): 945.2 ± 5.4** nmol/min/mg protein
- Bone alkaline phosphatase activity ([3]; 10^−8 M, 48 h culture): 918.4 ± 4.3 nmol/min/mg protein
- Bone alkaline phosphatase activity in metaphysis tissue increased by β-cryptoxanthin: change in the presence of cycloheximide (in words) [3, 7]: significantly lowered
- Effect on DNA level in the diaphysis tissue (in words) [4, 8]: significantly increased
- Bone DNA level [4, 6]: 1.800 ± 0.025* mg/g bone wet weight
- Bone DNA level ([4]; 10^−5 M, 48 h culture): 1.802 ± 0.063** mg/g bone wet weight
- Bone DNA level ([4]; 10^−6 M, 48 h culture): 1.746 ± 0.016* mg/g bone wet weight
- Bone DNA level ([4]; 10^−7 M, 48 h culture): 1.788 ± 0.049* mg/g bone wet weight
- Bone DNA level ([4]; 10^−8 M, 48 h culture): 1.741 ± 0.099 mg/g bone wet weight
- Bone DNA level in diaphysis tissue increased by β-cryptoxanthin: change in the presence of cycloheximide (in words) [4, 7]: significantly lowered
- Control of prostaglandin E2-caused reduction of calcium level in the bone tissue (in words) ([5]; diaphysis tissue, β-cryptoxanthin 10^−5 to 10^−6 M (so in the source) with prostaglandin E2 10^−5 M): completely controlled
- Control of PTH-caused reduction of calcium level in the diaphysis tissue (in words) ([5]; β-cryptoxanthin 10^−8 to 10^−6 M in the presence of PTH): significantly controlled

Reference: patent US8148431B2, “Osteogenesis promoter containing β-cryptoxanthin as the active ingredient” (Kemin Health, L.C., priority 2002, dated 2012)
